Active and inactive are the calls of the source. The rule behind the calls is not given here.
Legend:
[1] = Cytotoxicity against mouse BMMC cells assessed as inhibition of cell growth incubated for 48 hrs by MTT assay; format: toxicity, cell-based
BMMC [2] = experiment: Anti-osteoclastogenic activity in mouse BMMC cells assessed as inhibition of RANKL mediated osteoclast differentiation by TRAP activity; format: functional, cell-based
[3] = Selectivity index, ratio of CC50 for cytotoxicity against mouse BMMC cells to IC50 for anti-osteoclastogenic activity in mouse BMMC cells; format: toxicity, cell-based; settings: read-out: Ratio CC50/IC50
[4] = biological target: MAP kinase p38 (Mus musculus) (UniProt P47811+O08911+Q9WUI1+Q9Z1B7); experiment: Inhibition of RANKL-induced p38 MAPK phosphorylation in mouse BMMC cells by Western blot analysis; format: cell-based; settings: dose 0.5-1.5 µM
[5] = biological target: Mitogen-activated protein kinase 1 and 3 (ERK2 and ERK1) (Mus musculus) (UniProt P63085+Q63844); experiment: Inhibition of RANKL-induced ERK1/2 phosphorylation in mouse BMMC cells by Western blot analysis; format: cell-based; settings: dose 0.5-1.5 µM
BMMC [6] = experiment: Inhibition of RANKL-induced JNK1/2 phosphorylation in mouse BMMC cells by Western blot analysis; format: cell-based; settings: dose 0.5-1.5 µM
BMMC [7] = experiment: Inhibition of RANKL-induced NFkappaB signaling in mouse BMMC cells assessed as inhibition of NFkappab nuclear translocation at 5 to 10 uM by Western blot analysis; format: cell-based; settings: dose 5-10 µM

Mitogen-activated protein kinase 1 and 3 (ERK2 and ERK1) (Mus musculus), sequence (P63085 whole entry, looked up): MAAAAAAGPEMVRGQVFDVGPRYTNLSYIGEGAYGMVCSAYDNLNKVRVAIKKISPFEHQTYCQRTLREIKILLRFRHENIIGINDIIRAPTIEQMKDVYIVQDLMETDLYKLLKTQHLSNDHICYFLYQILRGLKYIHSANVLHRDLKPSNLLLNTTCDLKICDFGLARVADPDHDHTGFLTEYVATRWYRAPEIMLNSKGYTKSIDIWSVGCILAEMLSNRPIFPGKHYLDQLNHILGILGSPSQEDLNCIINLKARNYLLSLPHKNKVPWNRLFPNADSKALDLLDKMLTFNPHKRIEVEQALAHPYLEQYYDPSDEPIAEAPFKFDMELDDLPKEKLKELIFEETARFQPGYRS
Mitogen-activated protein kinase 1 and 3 (ERK2 and ERK1) (Mus musculus), sequence (Q63844 whole entry, looked up): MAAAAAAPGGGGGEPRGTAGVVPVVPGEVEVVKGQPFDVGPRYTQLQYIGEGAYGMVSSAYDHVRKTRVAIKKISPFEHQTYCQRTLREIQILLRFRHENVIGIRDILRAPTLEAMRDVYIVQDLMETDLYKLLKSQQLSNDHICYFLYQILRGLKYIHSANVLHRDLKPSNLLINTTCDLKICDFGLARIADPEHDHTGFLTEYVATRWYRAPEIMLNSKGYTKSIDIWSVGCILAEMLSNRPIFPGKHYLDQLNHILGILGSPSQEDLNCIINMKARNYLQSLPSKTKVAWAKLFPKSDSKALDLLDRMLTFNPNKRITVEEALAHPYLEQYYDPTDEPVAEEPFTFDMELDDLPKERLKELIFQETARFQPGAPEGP

`C[C@@H]1C=C2C=C[C@@](C)(O)[C@]3(C)C(=O)[C@@](O)(CO)O[C@@H](C1)[C@@H]23` showed a CC50 at 48 h [1] of over 30 µM, an IC50 (BMMC [2]) of 6.3 µM and a selectivity ratio [3] of over 4.8. For the same molecule, the inhibition [4] was “Dose-Dependent Effect”, the inhibition [5] was “Dose-Dependent Effect” and the inhibition (BMMC [6]) was “Dose-Dependent Effect”. For the same molecule, the inhibition (BMMC [7]) was “Active”.
